From patent EP0029617A1, “Use of tertiary heterocyclic amines as synergists in pesticides; derivatives of cycloamines” (priority 1979, dated 1981)

Tested on: Kornkäfer (sitophilus granarius L)
Experiment: whole plant or invertebrate
Format: in vivo
Settings: for Wirksamkeit in % Substanz allein / mortality at 1000 µg/mL: amine 1 mg/ml in Aceton mixed 1 : 1 with Aceton, 2 ml per dish, 25 weevils, dead counted after 3 h; for Wirksamkeit in % Substanz +Ripcord: amine 1 mg/ml mixed 1 : 1 with Ripcord 0,01 mg/ml; for Wirksamkeit in % Substanz +Ripcord / Wirksamkeit in % Substanz +Talcord / mortality at 100 µg/mL: 3 h; for Wirksamkeit in % Substanz +Talcord: amine 1 mg/ml mixed 1 : 1 with Talcord 0,01 mg/ml; for mortality at 1000 µg/mL / mortality at 100 µg/mL: Sitophilus granarius; for mortality at 1000 µg/mL: read-out: Wirksamkeit in % Substanz allein; for % Wirkung Substanz +Ripcord / % Wirkung Substanz +Talcord: Pyrethroid : Amin 1 : 10, amine 0,1 mg/ml; for mortality at 100 µg/mL: read-out: % Wirkung Substanz allein
Method: Test von tertiären, heterocyclischen Aminen allein und im Gemisch mit Pyrethroiden an Kornkäfern (sitophilus granarius L)
In Petrischalen mit 15 cm Durchmesser mit talcumbepuderten Seitenwänden, um das Entfliehen der Kornkäfer zu verhindern, wurden jeweils 2 ml der Acetonlösungen einpipettiert und durch vorsichtiges Schwenken der Schalen gleichmäßig auf dem Boden verteilt. Nach dem Abdampfen des Acetons und dem Antrocknen der Beläge wurden in jede Schale 25 Kornkäfer eingezählt. Nach einer Stunde wurde jeweils ein 12,5 cm Rundfilter in die Schalen eingelegt, um den Käfern das Befreien aus der Rückenlage zu ermöglichen, was auf der glatten Glasplatte nicht möglich ist. Die lichtscheuen Käfer verkrochen sich mit Vorliebe unter die Filter und blieben so ständig mit den Wirkstoffbelägen in Kontakt. Alle Versuche liefen mit 3 Wiederholungen. Nach 3 h wurden die toten Käfer ausgezählt.
In der Tabelle 3 ist jeweils der Durchschnitt der Summe der 4 Einzelwerte angegeben. 25 tote Kornkäfer entsprechen dabei einer Wirkung von 100 %. Die Temperaturen betrugen während der Tests im Durchschnitt 19 - 21°C. Der synergistische Faktor berechnet sich analog wie in Beispiel 1 angegeben.
Die zu prüfenden tertiären, heterocyclischen Amine wurden - mit 1 mg Wirkstoff pro ml als Acetonlösungen angesetzt. Sie wurden im Verhältnis 1 : 1 mit Ripcord bzw. Talcord, die mit 0,01 mg Wirkstoff pro ml als Acetonlösung vorlagen, gemischt. Die Einzelkomponenten wurden im Verhältnis 1 : 1 mit Aceton gemischt.
Auch bei diesen Versuchen zeigten die Kontrollversuche stets bei Versuchsende eine Mortalität der Kornkäfer von 0 %.
Die synergistische Wirkung der tertiären, heterocyclischen Amine auf die Pyrethroide ist auch dann noch deutlich, wenn das Amin in wesentlich niederen Aufwandmengen eingesetzt wird, als dies in Beispiel 3 beschrieben wurde. Die Ergebnisse sind in der Tabelle 4 zusammengestellt. Dieser Versuch zeigt auch, daß Amine mit insektiziden Eigenschaften, wenn sie in Konzentrationen unterhalb ihres insektiziden Wirkungsbereiches eingesetzt werden, immer noch gute synergistische Wirkungen im Gemisch mit Pyrethroiden zeigen. Die Versuche wurden wie im Beispiel 3 beschrieben mit Kornkäfern durchgeführt. Es wurden lediglich die Konzentrationen der eingesetzten tertiären, heterocyclischen Amine geändert. Für die Verdünnung Pyrethroid : Amin = 1 : 10 wurde das Amin mit 0,1 mg Wirkstoff/ml Acetonlösung eingesetzt. Für die Verdünnung 1 : 5 mit 0,05 mg Wirkstoff/ml.

[1] = amine 1 mg/ml + Ripcord 0,01 mg/ml
[2] = amine 1 mg/ml + Talcord 0,01 mg/ml
[3] = amine 0,1 mg/ml (as for Pyrethroid : Amin 1 : 10)

| Compound | Synergistischer Faktor bei Ripcord [1] | Synergistischer Faktor bei Talcord [2] | Wirksamkeit in % Substanz allein | Wirksamkeit in % Substanz +Ripcord | Wirksamkeit in % Substanz +Talcord | mortality at 1000 µg/mL [%] | % Wirkung Substanz +Ripcord (180 min) | % Wirkung Substanz +Talcord (180 min) | mortality at 100 µg/mL [3] [%] | Synergistischer Faktor bei Ripcord (Pyrethroid : Amin 1 : 10) | Synergistischer Faktor bei Talcord (Pyrethroid : Amin 1 : 10) | % Wirkung Substanz allein (amine 0,1 mg/ml (as for Pyrethroid : Amin 1 : 10), 180 min) [%] | Synergistischer Faktor bei Ripcord (in vivo) | Synergistischer Faktor bei Talcord (in vivo) |
| --- | --- | --- | --- | --- | --- | --- | --- | --- | --- | --- | --- | --- | --- | --- |
| N-Lactosido-pyrrolidin | 2,70 | 2,06 | 0% | 85,2% | 20,0% |  |  |  |  |  |  |  |  |  |
| Clc1ccc(CN2CCCCC2)cc1 [N-4-Chlor-benzyl-piperidin] | 2,37 | 4,82 | 0% | 74,8% | 46,8% |  |  |  |  |  |  |  |  |  |
| CCOC(=O)C(CC)N1CCOCC1 (stereo not drawn) [2-N-Morpholino-buttersäure-ethylester] | 1,56 | 3,30 | 0% | 49,2% | 32,0% |  |  |  |  |  |  |  |  |  |
| c1ccc(CN2CCOCC2)cc1 [N-Benzyl-morpholin] | 1,43 | 2,19 |  | 45,2% | 21,2% | 0 |  |  |  |  |  |  |  |  |
| CCCCCCCCCCCCN1CCCC1 [N-1-Dodecyl-pyrrolidin] |  |  |  | 92,0% | 96,0% | 89.3 |  |  |  |  |  |  |  |  |
| CCCCCCCCN1CCCCC1 [N-1-Octyl-piperidin] | 1,74 | 1,24 |  | 54,8% | 12,0% | 0 |  |  |  |  |  |  |  |  |
| CN(C)C(=O)N1CCCCC1 [N-Dimethyl-carbamoyl-piperidin] | 1,69 | 6,60 | 0% | 53,2% | 64,0% |  |  |  |  |  |  |  |  |  |
| CCCCCCCCCCCCN1CCOCC1 [N-1-Dodecyl-morpholin] | 2,76 | 1,53 |  | 86,8% | 14,8% | 0 |  |  |  |  |  |  |  |  |
| C#CCN1CCCC1 [3-N-pyrrolidino-propin] | 1,61 | 1,52 | 0% | 50,8% | 14,8% |  |  |  |  |  |  |  |  |  |
| c1ccc(CN2CCCCC2)cc1 [N-Benzyl-piperidin] |  |  |  | 94,8% | 32,0% | 0 | 100,0% | 73,2% | 0 |  |  |  |  |  |
| N#CCN1CCCCCC1 [N-Hexamethylenimino-aceto-nitril] | 1,69 | 1,53 | 0% | 53,2% | 14,8% |  |  |  |  |  |  |  |  |  |
| C(CCCN1CCCC1)CCN1CCCC1 [1,6-N,N-Di-pyrrolidino-hexan] | 2,52 | 4,24 | 0% | 77,2% | 41,2% |  |  |  |  |  |  |  |  |  |
| Clc1ccc(CN2CCCC2)cc1 [N-4-Chlor-benzyl-pyrrolidin] | 3,17 | 2,35 | 0% | 100,0% | 22,8% |  | 97,2% | 73,2% |  | 3,09 | 7,55 | 0 |  |  |
| OC(CCl)CN1CCCCC1 (stereo not drawn) [1-N-Piperidino-2-hydroxi-3-chlor-propan] | 1,74 | 5,65 | 0% | 54,8% | 54,8% |  |  |  |  |  |  |  |  |  |
| c1ccc2cc(CN3CCCCC3)ccc2c1 [2-N-Piperidino-methyl-naphthalin] | 3,05 | 9,07 | 0% | 96,0% | 88,0% |  |  |  |  |  |  |  |  |  |
| CCCCOC(CN1CCCCC1)OCCCC [2-N-Piperidino-ethyl-dibutyl-acetal] |  |  | 0% | 86,8% | 36,0% |  |  |  |  |  |  |  | 2,76 | 3,71 |
| CCOC(=O)C(c1ccccc1)C(C(=O)OCC)N1CCCC1 (stereo not drawn) [Phenyl-N-pyrrolidin-bern-steinsäure-diethylester] | 2,79 | 2,76 | 0% | 88,0% | 26,8% |  |  |  |  |  |  |  |  |  |
| CCCCCC(C=O)CN1CCCCC1 (stereo not drawn) [N-Piperidino-methyl-heptanal] |  |  | 0% | 49,2% | 60,0% |  |  |  |  |  |  |  | 1,56 | 6,19 |
| c1ccc(OCCN2CCCCC2)cc1 [N-2-Phenoxi-ethyl-(1)-piperidin] | 2,54 | 6,60 | 4,0% | 84,0% | 68,0% |  |  |  |  |  |  |  |  |  |
| O=[N+]([O-])c1ccc(CN2CCCCC2)cc1 [N-4-Nitro-benzyl-piperidin] | 1,47 | 1,77 |  | 49,2% | 20,0% | 2.8 |  |  |  |  |  |  |  |  |
| C=CC(C)(CCC=C(C)CCC=C(C)C)N1CCCC1 (stereo not drawn) [3-N-pyrrolidino-3,7,11-tri-methyl-1,6,10-dodecatrien] | 3,00 | 3,59 | 0% | 94,8% | 34,8% |  |  |  |  |  |  |  |  |  |
| C1CCCC(N2CCOCC2)CC1 [N-Cycloheptyl-morpholin] | 1,78 | 3,59 |  | 56,0% | 34,8% | 0 |  |  |  |  |  |  |  |  |
| CCCCCCCCCCCCN1CCCCCC1 [N-1-Dodecyl-hexamethylenimin] | 1,59 | 1,03 |  | 64,0% | 24,0% | 14 |  |  |  |  |  |  |  |  |
| C(CCCCCN1CCCCC1)CCCCN1CCCCC1 [1,10-N,N-Di-piperidino-decan] | 2,41 | 6,06 | 0% | 76,0% | 58,8% |  |  |  |  |  |  |  |  |  |
| CCCCCCCCCCCN1CCCCCC1 [N-1-Undecyl-hexamethylenimin] |  |  |  | 73,1% | 81,2% | 0 | 92,0% | 73,2% | 0 |  |  |  |  |  |
| c1ccc(OCCCN2CCCCCC2)cc1 [N-3-Phenoxi-propyl-(1)-hexamethylenimin] | 2,03 | 3,42 | 0% | 64,0% | 33,2% |  |  |  |  |  |  |  |  |  |
